In patent US6046238A, “Method for treating or preventing the spread of acne vulgaris” (TriStrata, Inc., priority 1999, dated 2000):
≈ marks a conversion by molar mass, not a printed value. Entries after “also recorded” stand apart in the source; their conditions may differ. Read-outs that look alike come from different tables or passages of the source. Each block holds one compound with its values, some of them ahead of it.

Key:
Type in all cases: cell-based
[1] = tested on: ten different species of bacteria; test: MIC Agar Dilution Test, panel of ten bacteria
Excerpt: (§1) The following strains of microorganisms were used in Minimum Inhibitory Concentration (MIC) tests for phenyl 2-acetoxyethanoic acid in this example and for benzoyl peroxide, chlorhexidine gluconate and triclosan in the following examples. In total, five strains were used for S. aureus, five strains were used for S. epidermidis, two strains were used for M. sedentarius, three strains were used for M. luteus, two strains were used for B. epidermis, three strains were used for C. minutissium, one strain was used for S. marcescens, three strains were used for P. aeruginosa, four strains were used for E. coli, and thirty-two strains were used for P. acnes.
(§2) Antimicrobial effects were determined based on MIC Agar Dilution Test utilizing Trypticase Soy Agar II (BBL) incorporation plates with and without 10% intralipid (Kabi Pharmacia Inc.). Initially, phenyl 2-acetoxyethanoic acid was prepared as a 2 mg/ml (0.2%) solution in water. This solution with serial dilution was incorporated into the test agar plates. The MIC test gave similar results when the same species but a different strain was used.
(§3) Under the same test conditions described in Example 1, benzoyl peroxide was prepared as a 2.5 mg/ml (0.25%) solution in water. This solution with serial dilution was incorporated into the test agar plates. Typical test results are shown as follows.
(§4) Under the same test conditions described in Example 1, chlorhexidine gluconate was prepared as a 2 mg/ml (0.2%) solution in water. This solution with serial dilution was incorporated into the test agar plates. Typical test results are shown as follows.
(§5) Under the same test conditions described in Example 1, triclosan was prepared as a 10 mg/ml (1%) solution in water. This solution with serial dilution was incorporated into the test agar plates. Typical test results are shown as follows.
In order to determine the antimicrobial effect of an aryl 2-acetoxyethanoicacid, a standard test method of Minimum Inhibitory Concentration (MIC) against the growth of 10 bacteria was used. To determine a prophylactic effect against the development of, as well as a topical effect in the treatment of, body foul door, eleven human subjects participated in this study. More than twenty human subjects participated in a study to determine whether the compositions containing an aryl 2-acetoxyethanoic acid were therapeutically effective for topical treatment of folliculitis and other skin lesions, nail infections and mucosal infections caused by microbial infections. Scientific and test results are overviewed as follows.
(§6) Ten different species of bacteria were used in Minimum Inhibitory Concentration (MIC) tests. The bacteria include S. aureus, S. epidermidis,M. sedentarius, M. luteus, B. epidermis, C. minutissium, S. marcescens, P. aeruginosa, E. coli, and P. acnes. In addition various sources and strains of these bacteria were also included in the tests, and up to 32 different strains of P. acnes were used.
(§7) The test substance selected from phenyl 2-acetoxyethanoic acid, benzoyl peroxide, chlorhexidine gluconate and triclosan was dissolved in water, and the solution with serial dilution was incorporated into the test agar plates. The plates containing different concentrations of test substance were inoculated with a strain of bacterium. MIC is defined as the lowest concentration of the test substance in the plate in which there is no growth of the microorganism.

Pseudomonas aeruginosa = test: MIC Agar Dilution Test, Pseudomonas aeruginosa
Excerpt: as §1, §2, §3, §4, §5, §6, §7

[2] = tested on: Corynebacterium minutissium; test: MIC Agar Dilution Test, Corynebacterium minutissium
Excerpt: as §1, §2, §3, §4, §5, §6, §7

Brevibacterium epidermis = test: MIC Agar Dilution Test, Brevibacterium epidermis
Excerpt: as §1, §2, §3, §4, §5, §6, §7

Propionibacterium acnes = test: MIC Agar Dilution Test, Propionibacterium acnes; details: Cutibacterium acnes
Excerpt: as §1, §2, §3, §4, §5, §6, §7

[3] = tested on: Staphylococcus epidermidis; test: MIC Agar Dilution Test, Staphylococcus epidermidis
Excerpt: as §1, §2, §3, §4, §5, §6, §7

Micrococcus sedentarius = test: MIC Agar Dilution Test, Micrococcus sedentarius; details: Kytococcus sedentarius
Excerpt: as §1, §2, §3, §4, §5, §6, §7

Micrococcus luteus = test: MIC Agar Dilution Test, Micrococcus luteus
Excerpt: as §1, §2, §3, §4, §5, §6, §7

Staphylococcus aureus = test: MIC Agar Dilution Test, Staphylococcus aureus
Excerpt: as §1, §2, §3, §4, §5, §6, §7

Escherichia coli = test: MIC Agar Dilution Test, Escherichia coli
Excerpt: as §1, §2, §3, §4, §5, §6, §7

Serratia marcescens = test: MIC Agar Dilution Test, Serratia marcescens
Excerpt: as §1, §2, §3, §4, §5, §6, §7

[4] = in the absence of lipid materials, triclosan: excluding S. marcescens and P. aeruginosa
[5] = in the presence of 10% lipid materials, benzoyl peroxide: excluding S. marcescens and P. aeruginosa
[6] = P. aeruginosa, 10% intralipid, read-out: MIC Lipid
[7] = P. aeruginosa, no lipid, read-out: MIC No Lipid
[8] = C. minutissium, 10% intralipid, read-out: MIC Lipid
[9] = C. minutissium, no lipid, read-out: MIC No Lipid
[10] = B. epidermis, 10% intralipid, read-out: MIC Lipid
[11] = B. epidermis, no lipid, read-out: MIC No Lipid
[12] = P. acnes, 10% intralipid, read-out: MIC Lipid
[13] = P. acnes, no lipid, read-out: MIC No Lipid
[14] = S. epidermidis, 10% intralipid, read-out: MIC Lipid
[15] = S. epidermidis, no lipid, read-out: MIC No Lipid
[16] = M. sedentarius, 10% intralipid, read-out: MIC Lipid
[17] = M. sedentarius, no lipid, read-out: MIC No Lipid
[18] = M. luteus, 10% intralipid, read-out: MIC Lipid
[19] = M. luteus, no lipid, read-out: MIC No Lipid
[20] = S. aureus, 10% intralipid, read-out: MIC Lipid
[21] = S. aureus, no lipid, read-out: MIC No Lipid
[22] = E. coli, 10% intralipid, read-out: MIC Lipid
[23] = E. coli, no lipid, read-out: MIC No Lipid
[24] = S. marcescens, 10% intralipid, read-out: MIC Lipid
[25] = S. marcescens, no lipid, read-out: MIC No Lipid

MIC (Pseudomonas aeruginosa; [6]): 1250 µg/mL (≈ 5.16 mM)
MIC (Pseudomonas aeruginosa; [7]): 72500 µg/mL (≈ 299 mM)
MIC [2, 8]: 1250 µg/mL (≈ 5.16 mM)
MIC [2, 9]: 2500 µg/mL (≈ 10.3 mM)
MIC (Brevibacterium epidermis; [10]): 1250 µg/mL (≈ 5.16 mM)
MIC (Brevibacterium epidermis; [11]): 2500 µg/mL (≈ 10.3 mM)
MIC (Propionibacterium acnes; [12]): 625 µg/mL (≈ 2.58 mM)
MIC (Propionibacterium acnes; [13]): 2500 µg/mL (≈ 10.3 mM)
MIC (Propionibacterium acnes; in the presence of 10% lipid materials, read-out: concentration effective against P. acnes): 625 µg/mL
MIC [3, 14]: 1250 µg/mL (≈ 5.16 mM)
MIC [3, 15]: 2500 µg/mL (≈ 10.3 mM)
MIC (Micrococcus sedentarius; [16]): 650 µg/mL (≈ 2.68 mM)
MIC (Micrococcus sedentarius; [17]): 2500 µg/mL (≈ 10.3 mM)
MIC (Micrococcus sedentarius; in the presence of 10% lipid materials, read-out: concentration showing inhibitory effects against M. sedentarius): 625 µg/mL
MIC (Micrococcus luteus; [18]): 650 µg/mL (≈ 2.68 mM)
MIC (Micrococcus luteus; [19]): 2500 µg/mL (≈ 10.3 mM)
MIC (Micrococcus luteus; in the presence of 10% lipid materials (printed M. lutens), read-out: concentration showing inhibitory effects against M. luteus): 625 µg/mL
MIC (Staphylococcus aureus; [20]): 1250 µg/mL (≈ 5.16 mM)
MIC (Staphylococcus aureus; [21]): 2500 µg/mL (≈ 10.3 mM)
MIC (Escherichia coli; [22]): 1250 µg/mL (≈ 5.16 mM)
MIC (Escherichia coli; [23]): 2500 µg/mL (≈ 10.3 mM)
MIC (Serratia marcescens; [24]): 1250 µg/mL (≈ 5.16 mM)
MIC (Serratia marcescens; [25]): 72500 µg/mL (≈ 299 mM)
Structure (SMILES): O=C(OOC(=O)c1ccccc1)c1ccccc1 [benzoyl peroxide]
effect against the growth of the bacteria [1, 4]: not effective against the growth of all the bacteria tested
effect against the growth of the bacteria [1, 5]: moderately effective

MIC (Pseudomonas aeruginosa; [6]): > 2000 µg/mL
MIC (Pseudomonas aeruginosa; [7]): 1000 µg/mL
MIC [2, 8]: > 2000 µg/mL
MIC [2, 9]: 125 µg/mL
MIC (Brevibacterium epidermis; [10]): > 2000 µg/mL
MIC (Brevibacterium epidermis; [11]): 250 µg/mL
MIC (Propionibacterium acnes; [12]): > 2000 µg/mL
MIC (Propionibacterium acnes; [13]): 62.5 µg/mL
MIC [3, 14]: > 2000 µg/mL
MIC [3, 15]: 125 µg/mL
MIC (Micrococcus sedentarius; [16]): > 2000 µg/mL
MIC (Micrococcus sedentarius; [17]): 125 µg/mL
MIC (Micrococcus luteus; [18]): > 2000 µg/mL
MIC (Micrococcus luteus; [19]): 125 µg/mL
MIC (Staphylococcus aureus; [20]): > 2000 µg/mL
MIC (Staphylococcus aureus; [21]): 125 µg/mL
MIC (Escherichia coli; [22]): > 2000 µg/mL
MIC (Escherichia coli; [23]): 250 µg/mL
MIC (Serratia marcescens; [24]): > 2000 µg/mL
MIC (Serratia marcescens; [25]): 1000 µg/mL
Structure (SMILES): N=C(NCCCCCCNC(=N)NC(=N)Nc1ccc(Cl)cc1)NC(=N)Nc1ccc(Cl)cc1 [chlorhexidine gluconate]
effect against the growth of the bacteria [1, 4]: effective against various bacteria
effect against the growth of the bacteria [1, 5]: totally ineffective; also recorded: not effective against the growth of all the bacteria tested; also recorded: ineffective against most microorganisms

Structure (SMILES): Oc1cc(Cl)ccc1Oc1ccc(Cl)cc1Cl [triclosan]
effect against the growth of the bacteria [1, 4]: effective against various bacteria
effect against the growth of the bacteria [1, 5]: ineffective; also recorded: not effective against the growth of all the bacteria tested; also recorded: ineffective against most microorganisms
MIC ([1]; read-out: concentration found effective against the bacteria tested): 156 µg/mL (≈ 0.539 mM)
MIC (Pseudomonas aeruginosa; read-out: MIC Lipid): > 10000 µg/mL
MIC (Pseudomonas aeruginosa; read-out: MIC No Lipid): > 10000 µg/mL
MIC ([2]; read-out: MIC Lipid): > 10000 µg/mL
MIC ([2]; read-out: MIC No Lipid): 156 µg/mL (≈ 0.539 mM)
MIC (Brevibacterium epidermis; read-out: MIC Lipid): > 10000 µg/mL
MIC (Brevibacterium epidermis; read-out: MIC No Lipid): 156 µg/mL (≈ 0.539 mM)
MIC (Propionibacterium acnes; read-out: MIC Lipid): > 10000 µg/mL
MIC (Propionibacterium acnes; read-out: MIC No Lipid): 156 µg/mL (≈ 0.539 mM)
MIC ([3]; read-out: MIC Lipid): 5000 µg/mL (≈ 17.3 mM)
MIC ([3]; read-out: MIC No Lipid): 156 µg/mL (≈ 0.539 mM)
MIC (Micrococcus sedentarius; read-out: MIC Lipid): > 10000 µg/mL
MIC (Micrococcus sedentarius; read-out: MIC No Lipid): 156 µg/mL (≈ 0.539 mM)
MIC (Micrococcus luteus; read-out: MIC Lipid): > 10000 µg/mL
MIC (Micrococcus luteus; read-out: MIC No Lipid): 156 µg/mL (≈ 0.539 mM)
MIC (Staphylococcus aureus; read-out: MIC Lipid): > 10000 µg/mL
MIC (Staphylococcus aureus; read-out: MIC No Lipid): 156 µg/mL (≈ 0.539 mM)
MIC (Escherichia coli; read-out: MIC Lipid): > 10000 µg/mL
MIC (Escherichia coli; read-out: MIC No Lipid): 156 µg/mL (≈ 0.539 mM)
MIC (Serratia marcescens; read-out: MIC Lipid): > 10000 µg/mL
MIC (Serratia marcescens; read-out: MIC No Lipid): > 10000 µg/mL
